Test results published in US5955616A, “Pyrrolidine derivatives having phospholipase A2 inhibitory activity” (Shionogi & Co., Ltd., priority 1995, dated 1999).

Legend:
cPLA2 = target: T1, cPLA2 (Homo sapiens, UniProt P47712); assay: cPLA2 Inhibitory activity (release of radiolabelled fatty acid from liposomes); type: biochemical; details: 50 mM HEPES pH 7.4, 1 mM CaCl2, 2.5 μM radio-labeled phosphatidylcholine, 15 min at 37° C; read-out: cPLA2 Inhibition Activity IC50
T1 sequence (P47712 1-749): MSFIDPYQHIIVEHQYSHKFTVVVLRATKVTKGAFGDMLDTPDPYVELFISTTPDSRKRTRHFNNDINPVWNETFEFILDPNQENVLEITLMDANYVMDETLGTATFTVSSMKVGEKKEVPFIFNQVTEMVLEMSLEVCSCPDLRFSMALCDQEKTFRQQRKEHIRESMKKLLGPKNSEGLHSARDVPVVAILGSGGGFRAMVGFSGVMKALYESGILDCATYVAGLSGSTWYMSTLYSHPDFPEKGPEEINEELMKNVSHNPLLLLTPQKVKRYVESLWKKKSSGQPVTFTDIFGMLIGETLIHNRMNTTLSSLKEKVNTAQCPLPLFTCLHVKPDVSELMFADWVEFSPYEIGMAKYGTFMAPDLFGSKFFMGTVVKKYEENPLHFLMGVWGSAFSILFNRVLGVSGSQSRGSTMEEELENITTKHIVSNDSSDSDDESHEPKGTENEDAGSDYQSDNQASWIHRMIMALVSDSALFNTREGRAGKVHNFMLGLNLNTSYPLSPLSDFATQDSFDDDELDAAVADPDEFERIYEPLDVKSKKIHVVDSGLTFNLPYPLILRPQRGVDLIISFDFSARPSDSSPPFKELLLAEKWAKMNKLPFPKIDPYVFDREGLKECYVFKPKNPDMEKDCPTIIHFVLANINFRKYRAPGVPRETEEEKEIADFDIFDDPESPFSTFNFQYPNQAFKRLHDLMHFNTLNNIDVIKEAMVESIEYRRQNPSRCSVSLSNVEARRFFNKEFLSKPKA
Method: Experiment 1 cPLA2 Inhibitory activity
The compounds of the present invention was tested for the cPLA2 inhibitory activity by a method known in a literature (R. M. Kramer, E. F. Roberts, J. Manetta and J. E. Putnam, J. Biol. Chem., 268(8), 5268-5272 ([…])), as outlined below.
As a substrate, liposomes which contain 1-palmitoyl-2-[^14 C]-arachidonoyl-sn-glycero-3-phosphocholine and sn-1,2-dioleoylglycerol at the ratio of 2:1 and have treated ultrasonically were used. The substrate was added to a 50 mM HEPES buffer (pH 7.4) (200 μl) containing 1 mM CaCl2, 2 mM dithiothreitol, 150 mM NaCl, 0.1 mg/ml BSA so as to make the concentration of radio-labeled phosphatidylcholine 2.5 μM. To the solution was added a compound of the present invention in DMSO (10 μl) to obtain reaction solutions each containing the test compound at 250 μM, 50 μM, 10 μm, 2 μM, and 0.4 μM. The reaction was allowed to start by adding an enzyme (cPLA2) (4 ng) and continued for 15 min at 37° C.
The amount of fatty acids released by the reaction was measured on a liquid scintillation counter. Control was obtained by conducting the experiment in the same manner except that a compound of the present invention was not added. The inhibitory activity was expressed as percent (%) to the control value, which was used for the calculation of the concentration required for 50% inhibition (IC50, μM).

[1] = system: Prostaglandin E2 production in human fibroblasts; assay: Inhibition of Production of Prostaglandin E2 in Human Fibroblasts (IL-1 stimulated); type: cell-based; details: Fibroblast, stimulation with IL-1, read-out: Inhibitory activity Against the Production of Prostaglandin E2 in Human Fibroblasts IC50
Method: Experiment 2 Inhibition of Production of Prostaglandin E2 in Human Fibroblasts
From this viewpoint, the compounds of the present invention were tested for the effect on the production of prostaglandin E2 by human fibroblasts under the stimulation with IL-1 according to the method of J. M. Dayer et al (CACHECTIN/TUMOR NECROSIS FACTOR STIMULATES COLLAGENASE AND PROSTAGLANDIN E2 PRODUCTION BY HUMAN SYNOVIAL CELLS AND DERMAL FIBROBLASTS; J. M. Dayer, B. Beutlerm and A. Cerami, J. Exp. Med., 162,2163-2168, 1985).

| Structure (SMILES) | IC50 (cPLA2) [µM] | IC50 [1] [µM] |
| --- | --- | --- |
| O=C1NC(=O)C(=Cc2ccc(NC(=O)[C@@H]3C[C@H](SCc4ccccc4)CN3C(=O)c3ccccc3)cc2)S1 [Compound A-3] | 5.3 | 2.4 |
| COc1c(C(C)(C)C)cc(CS[C@H]2C[C@@H](C(=O)Nc3ccc(C=C4SC(=O)NC4=O)cc3)N(C(=O)c3ccccc3)C2)cc1C(C)(C)C [Compound A-4] | 1.6 | 4.9 |
| O=C1NC(=O)C(=Cc2ccc(NC(=O)[C@@H]3C[C@H](SCc4ccc5ccccc5c4)CN3C(=O)c3ccccc3)cc2)S1 [Compound A-5] | 3.6 | 7 |
| O=C1NC(=O)C(=Cc2ccc(NC(=O)[C@@H]3C[C@H](SCc4ccc(-c5ccccc5)cc4)CN3C(=O)c3ccccc3)cc2)S1 [Compound A-6] | 3.3 | 8.2 |
| O=C1NC(=O)C(=Cc2ccc(NC(=O)[C@@H]3C[C@H](SCc4ccc(C(F)(F)F)cc4)CN3C(=O)c3ccccc3)cc2)S1 [Compound A-7] | 5.3 | 4.5 |
| O=C1NC(=O)C(=Cc2ccc(NC(=O)[C@@H]3C[C@H](SCc4ccc(C(F)(F)F)cc4C(F)(F)F)CN3C(=O)c3ccccc3)cc2)S1 [Compound A-8] | 4.8 | 2.5 |
| COc1cc(CS[C@H]2C[C@@H](C(=O)Nc3ccc(C=C4SC(=O)NC4=O)cc3)N(C(=O)c3ccccc3)C2)cc(OC)c1OC [Compound A-9] | 5.1 | 3 |
| CC(C)=CCCC(C)=CCS[C@H]1C[C@@H](C(=O)Nc2ccc(C=C3SC(=O)NC3=O)cc2)N(C(=O)c2ccccc2)C1 [Compound A-11] | 4.7 | 8.5 |
| O=C1NC(=O)C(=Cc2ccc(NC(=O)[C@@H]3C[C@H](SC(c4ccccc4)c4ccccc4)CN3C(=O)c3ccccc3)cc2)S1 [Compound A-12] | 1.3 | 1.6 |
| CC(C)S[C@H]1C[C@@H](C(=O)Nc2ccc(C=C3SC(=S)NC3=O)cc2)N(C(=O)OC(C)(C)C)C1 [Compound A-16] | 22 | 2.9 |
| CC(C)(C)OC(=O)N1C[C@@H](SCc2ccccc2)C[C@H]1C(=O)Nc1ccc(C=C2SC(=S)NC2=O)cc1 [Compound A-17] | 6 | 3.2 |
| CS[C@H]1C[C@@H](C(=O)Nc2ccc(C=C3SC(=O)NC3=O)cc2)N(C(=O)c2ccc(-c3ccccc3)cc2)C1 [Compound A-20] | 22 | 0.3 |
| O=C1NC(=S)S/C1=C\c1ccc(NC(=O)[C@@H]2C[C@H](SCc3ccccc3)CN2S(=O)(=O)Cc2c(Cl)cccc2Cl)cc1 [Compound A-53] |  | 0.83 |
| O=C1NC(=O)C(=C(CO)c2ccc(NC(=O)[C@@H]3C[C@H](SCc4ccccc4)CN3C(=O)Cc3ccc(Br)cc3)cc2)S1 [Compound D-3] |  | 7.1 |
| O=C1NC(=O)C(=C(CO)c2ccc(NC(=O)[C@@H]3CC(OC(c4ccccc4)c4ccccc4)CN3C(=O)c3ccccc3)cc2)S1 (stereo partly shown) [Compound I-1] | 26 |  |
| O=C1NC(=O)C(=C(CO)c2ccc(NC(=O)C3CC(OC(c4ccccc4)(c4ccccc4)c4ccccc4)CN3C(=O)c3ccccc3)cc2)S1 (stereo not shown) [Compound I-2] | 3.5 |  |

Further lines, with some results ahead:

| IC50 (cPLA2) [µM] | Structure (SMILES) | IC50 [1] [µM] |
| --- | --- | --- |
| 21 | O=C1NC(=O)/C(=C/c2ccc(NC(=O)[C@@H]3C[C@H](NCc4ccccc4)CN3C(=O)Cc3ccc(Br)cc3)cc2)S1 [Compound J-1] |  |
| 5.3 | O=C1NC(=S)S/C1=C\c1ccc(NC(=O)[C@@H]2CCCN2C(=O)Cc2ccc(Br)cc2)cc1 [Compound L-1] |  |
| 23 | O=C1NC(=O)/C(=C/c2ccc(NC(=O)[C@@H]3C[C@@H](SCc4ccccc4)CN3S(=O)(=O)c3ccc(-c4ccccc4)cc3)cc2)S1 [Compound M-1] |  |
| 15 | O=C1NC(=O)/C(=C/c2ccc(NC(=O)[C@H]3C[C@H](SCc4ccccc4)CN3S(=O)(=O)c3ccc(-c4ccccc4)cc3)cc2)S1 [Compound M-2] |  |
| 10 | O=C1NC(=O)/C(=C/c2ccc(NC(=O)[C@H]3C[C@@H](SCc4ccccc4)CN3S(=O)(=O)c3ccc(-c4ccccc4)cc3)cc2)S1 [Compound M-3] |  |
| 6.6 | O=C1NC(=O)C(=Cc2ccc(COC3CC(CNC(=O)c4ccc(-c5ccccc5)cc4)N(C(=O)c4ccccc4)C3)cc2)S1 (stereo not shown) [Compound N-1] |  |
